# Structures can show the parent of a compound that is named as a salt.
# Key:
# R232-STING = R232-STING (Homo sapiens, UniProt Q86WV6, H232R); assay: biochemical
# STING [1] = biological target: T1, STING (Homo sapiens, UniProt Q86WV6, G230A/H232R/R293Q/R71H); assay: Interferon-β induction: THP-1 Lucia ISG reporter cell line; assay type: cell-based; settings: THP-1 Lucia ISG cells, 24 hours incubation, luciferase reporter; read-out: THP-1 Lucia ISG Cells IFN-β EC50
# T1 construct: host or cells: THP-1 and THP-1 Lucia ISG cells
# T1 sequence (Q86WV6 whole entry R71H/G230A/H232R/R293Q): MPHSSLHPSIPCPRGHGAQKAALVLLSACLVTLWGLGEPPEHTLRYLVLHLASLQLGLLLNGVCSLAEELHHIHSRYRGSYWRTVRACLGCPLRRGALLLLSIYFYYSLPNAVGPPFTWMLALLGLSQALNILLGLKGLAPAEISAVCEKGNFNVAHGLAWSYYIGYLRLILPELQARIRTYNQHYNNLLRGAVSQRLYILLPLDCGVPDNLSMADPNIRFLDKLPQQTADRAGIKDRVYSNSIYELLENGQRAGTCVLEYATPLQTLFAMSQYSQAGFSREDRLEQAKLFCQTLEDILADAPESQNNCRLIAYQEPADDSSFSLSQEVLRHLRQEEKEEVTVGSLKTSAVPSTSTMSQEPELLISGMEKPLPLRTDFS
# Procedure: Interferon-β Induction: THP-1 ISG Reporter Cell Line
# THP-1 Lucia™ ISG cells (InvivoGen) express the secreted luciferase “Lucia” reporter gene under the control of an IRF-inducible composite promotor comprised of five interferon response elements. THP-1 Lucia™ ISG cells were grown in RPMI media plus 2 mM L-glutamine, 10% fetal bovine serum, and 0.5% Pen-Strep. Hygromycin B and Zeocin were present to maintain stable transfection. 10^4 cells were seeded in 96-well plates and incubated overnight 37° C., 5% CO2. 50 μL of serial diluted compounds in media (final 0.5% DMSO) was and incubated for an additional 24 hours. After incubation, the plates were centrifuged at 2000 rpm for 10 min. 50 μl of cell culture supernatant of each well was transferred to a white, opaque 96-well plate. One pouch of QUANTI-Luc™ (InvivoGen) powder was prepared in 25 mL of endotoxin-free water and 100 μL of prepared warm QUANTI-Luc solution were added to each well containing the supernatant. The luminescence signal was measured using a Perkin-Elmer Envision microplate reader. Data were normalized to “% effect” with a positive control STING agonist that was known to maximize the luciferase signal and the negative control DMSO.
# STING [2] = biological target: T1, STING; assay: Phosphorylation of IRF3: THP-1 cell ELISA; assay type: cell-based; settings: THP-1 cells, 3 hours incubation, phospho-IRF3 ELISA; read-out: THP-1 CELL P-IRF3 EC50
# Procedure: Phosphorylation of IRF3: THP-1 Cell ELISA
# STING activation results in recruitment of TBK1 and phosphorylation of IRF3 transcription factor before induction of type I interferons. THP-1 cells (InvivoGen) were grown in RPMI media plus 2 mM L-glutamine, 10% fetal bovine serum, and 0.5% Pen-Strep. 10^4 cells were seeded in 96-well plates and incubated overnight 37° C., 5% CO2. Compounds serial diluted compounds in media (final 0.5% DMSO) were added to the cells and incubated for an additional 3 hours. After incubation, the plates were centrifuged at 2000 rpm for 5 min. The cells were then lysed in 100 μl RIPA buffer and vortexed for 30 minutes at room temperature. 25 μl of lysate was then transferred to clear polystyrene High Bind plates that had been previously coated with mouse anti-human IRF-3 capture antibody (BD Pharmigen), and allowed to incubate at 4° C. for 16 hours. The plates were then washed and incubated with rabbit anti-phospho-IRF3 detection antibody (Cell Signaling Technologies) for 1.5 hours at room temperature. Finally, an HRP-linked secondary antibody (Cell Signaling Technologies) was added for 30 min before the Glo Substrate Reagent (R&D Systems) was used generate the luminescent signal. The signal was measured using a Perkin-Elmer Envision microplate reader. Data were normalized to “% effect” with a positive control STING agonist that was known to maximize the phosphorylated IRF3 signal and the negative control was DMSO.
# Sequence of R232-STING (Q86WV6 155-341 H232R): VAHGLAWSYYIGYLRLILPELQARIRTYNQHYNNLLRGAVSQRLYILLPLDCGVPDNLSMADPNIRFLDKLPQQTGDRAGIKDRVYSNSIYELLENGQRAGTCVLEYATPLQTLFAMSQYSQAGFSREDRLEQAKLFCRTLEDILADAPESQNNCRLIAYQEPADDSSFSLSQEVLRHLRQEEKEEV
Ki (R232-STING) [nM],EC50 (STING [1]) [nM],EC50 (STING [2]) [nM],SMILES
8.3,340,240,"CCn1cc(C)c(O)c1-c1nc(-c2nc(C(N)=O)cc3c2cnn3C)cs1 [Example AG01, 4-[2-(1-ethyl-3-hydroxy-4-methyl-1H-pyrrol-2-yl)-1,3-thiazol-4-yl]-1-methyl-1H-pyrazolo[4,3-c]pyridine-6-carboxamide]"
184,6250,> 11100,"Cc1nn(CCCN)c(-c2n[nH]c(-c3nc(C(N)=O)cc4c3cnn4C)n2)c1O [Example AH01, 4-{3-[1-(3-aminopropyl)-4-hydroxy-3-methyl-1H-pyrazol-5-yl]-1H-1,2,4-triazol-5-yl}-1-methyl-1H-pyrazolo[4,3-c]pyridine-6-carboxamide]"
430,23200,25100,"CCn1nc(C)cc1-c1n[nH]c(-c2cc(C(N)=O)cc3c2cnn3CC)n1 [Example B01, 1-ethyl-4-[3-(1-ethyl-3-methyl-1H-pyrazol-5-yl)-1H-1,2,4-triazol-5-yl]-1H-indazole-6-carboxamide]"
46,6330,8000,"CCn1cc2c(-c3nc(-c4cc(C)nn4CC)n[nH]3)cc(C(N)=O)cc2n1 [Example B02, 2-ethyl-4-[3-(1-ethyl-3-methyl-1H-pyrazol-5-yl)-1H-1,2,4-triazol-5-yl]-2H-indazole-6-carboxamide]"
230,45300,≥ 100000,"CCn1nc(C)cc1-c1n[nH]c(-c2cc(C(N)=O)cc3nn(C)cc23)n1 [Example C01, 4-[3-(1-ethyl-3-methyl-1H-pyrazol-5-yl)-1H-1,2,4-triazol-5-yl]-2-methyl-2H-indazole-6-carboxamide]"
8.1,8930,10900,"Cc1cc(-c2n[nH]c(-c3cc(C(N)=O)cc4c3cnn4C)n2)n(CCC(=O)O)n1 [Example C03, 3-{5-[5-(6-carbamoyl-1-methyl-1H-indazol-4-yl)-1H-1,2,4-triazol-3-yl]-3-methyl-1H-pyrazol-1-yl}propanoic acid]"
13.3,240,250,"CCn1nc(C)c(Cl)c1-c1nc(-c2cc(C(N)=O)cc3c2cnn3C)n[nH]1 [Example C04, 4-[5-(4-chloro-1-ethyl-3-methyl-1H-pyrazol-5-yl)-1H-1,2,4-triazol-3-yl]-1-methyl-1H-indazole-6-carboxamide]"
165,27400,31600,"CCn1nc(C)c(F)c1-c1nc(-c2cc(C(N)=O)cc3c2cnn3CCN2CCOCC2)n[nH]1 [Example C05, 4-[5-(1-ethyl-4-fluoro-3-methyl-1H-pyrazol-5-yl)-1H-1,2,4-triazol-3-yl]-1-[2-(morpholin-4-yl)ethyl]-1H-indazole-6-carboxamide]"
277,92800,96700,"CCn1nc(C)c(F)c1-c1nc(-c2cc(C(N)=O)cc3c2cnn3CCCN2CCOCC2)n[nH]1 [Example C06, 4-[5-(1-ethyl-4-fluoro-3-methyl-1H-pyrazol-5-yl)-1H-1,2,4-triazol-3-yl]-1-[3-(morpholin-4-yl)propyl]-1H-indazole-6-carboxamide]"
4.7,130,140,"CCn1nc(C)c(F)c1-c1n[nH]c(-c2nc(C(N)=O)cc3c2cnn3C)n1 [Example C08, 4-[3-(1-ethyl-4-fluoro-3-methyl-1H-pyrazol-5-yl)-1H-1,2,4-triazol-5-yl]-1-methyl-1H-pyrazolo[4,3-c]pyridine-6-carboxamide]"
1.4,12300,15100,"Cc1cc(-c2nc(-c3nc(C(N)=O)cc4c3cnn4C)n(C)n2)n(CCC(=O)O)n1 [Example C09, 3-{5-[5-(6-carbamoyl-1-methyl-1H-pyrazolo[4,3-c]pyridin-4-yl)-1-methyl-1H-1,2,4-triazol-3-yl]-3-methyl-1H-pyrazol-1-yl}propanoic acid]"
232,19900,20200,"CCn1nc(C)cc1-c1n[nH]c(-c2cc(C(N)=O)cc3c2cnn3CCN(C)CC(F)(F)F)n1 [Example D05, 4-[3-(1-ethyl-3-methyl-1H-pyrazol-5-yl)-1H-1,2,4-triazol-5-yl]-1-{2-[methyl(2,2,2-trifluoroethyl)amino]ethyl}-1H-indazole-6-carboxamide formic acid salt]"
301,≥ 100000,82900,"CCn1nc(C)cc1-c1n[nH]c(-c2cc(C(N)=O)cc3c2cnn3C(C)CN2CCOCC2)n1 (stereo not drawn) [Example D06, 4-[5-(1-ethyl-3-methyl-1H-pyrazol-5-yl)-4H-1,2,4-triazol-3-yl]-1-[1-(morpholin-4-yl)propan-2-yl]-1H-indazole-6-carboxamide]"
28.7,650,640,"CCn1nc(C)cc1-c1n[nH]c(-c2c(F)c(C(N)=O)cc3c2cnn3C)n1 [Example E01, 4-[3-(1-ethyl-3-methyl-1H-pyrazol-5-yl)-1H-1,2,4-triazol-5-yl]-5-fluoro-1-methyl-1H-indazole-6-carboxamide]"
92.7,680,770,"CCn1nc(C)c(F)c1-c1nc(-c2cc(C(N)=O)cn3c(C)ncc23)n[nH]1 [Example F01, 8-[5-(1-ethyl-4-fluoro-3-methyl-1H-pyrazol-5-yl)-1H-1,2,4-triazol-3-yl]-3-methylimidazo[1,5-a]pyridine-6-carboxamide]"
30.4,1180,1160,CCn1nc(C)c(F)c1-c1c[nH]c(-c2cc(C(N)=O)cc3c2cnn3C)n1 [Example G02]
87.6,7170,10800,"CCn1nc(C)cc1-c1csc(-c2cc(C(N)=O)cc3c2cnn3C)n1 [Example H01, 4-[4-(1-ethyl-3-methyl-1H-pyrazol-5-yl)-1,3-thiazol-2-yl]-1-methyl-1H-indazole-6-carboxamide]"
14.2,510,530,"CCn1nc(C)cc1-c1nc(-c2nc(C(N)=O)cc3c2cnn3C)n(C)n1 [Example J01, 4-[3-(1-ethyl-3-methyl-1H-pyrazol-5-yl)-1-methyl-1H-1,2,4-triazol-5-yl]-1-methyl-1H-pyrazolo[4,3-c]pyridine-6-carboxamide]"
32.4,2760,3600,CCn1nc(C)c(F)c1-c1nc(-c2nc(C(N)=O)cc3c2cnn3CCN2CCC(C#N)CC2)n(C)n1 [Example J02]
6.8,760,630,CCn1nc(C)c(F)c1-c1nc(-c2nc(C(N)=O)cc3c2cnn3C)n(C)n1 [Example J03]
16,180,170,"CCn1nc(C)cc1-c1n[nH]c(-c2nc(C(N)=O)cc3c2cnn3C)n1 [Example K01, 4-[3-(1-ethyl-3-methyl-1H-pyrazol-5-yl)-1H-1,2,4-triazol-5-yl]-1-methyl-1H-pyrazolo[4,3-c]pyridine-6-carboxamide]"
66.2,3250,3090,"CCn1nc(C)cc1-c1n[nH]c(-c2cc(C(N)=O)cc3c(C)n[nH]c23)n1 [Example L01, 7-[3-(1-ethyl-3-methyl-1H-pyrazol-5-yl)-1H-1,2,4-triazol-5-yl]-3-methyl-1H-indazole-5-carboxamide]"
501,81900,77300,"CCn1nc(C)cc1-c1n[nH]c(-c2cc(C(N)=O)cc3c2cnn3CCN2CC(F)C2)n1 [Example M01, 4-[3-(1-ethyl-3-methyl-1H-pyrazol-5-yl)-1H-1,2,4-triazol-5-yl]-1-[2-(3-fluoroazetidin-1-yl)ethyl]-1H-indazole-6-carboxamide trifluoroacetic acid salt]"
278,22600,16600,CCn1nc(C)cc1-c1n[nH]c(-c2cc(C(N)=O)cc3c2cnn3CCN2CCC(F)(F)CC2)n1 [Example M02]
159,28500,32100,CCn1nc(C)cc1-c1n[nH]c(-c2cc(C(N)=O)cc3c2cnn3CCN2CC3CCC(C2)O3)n1 [Example M03]

# From patent US12297190B2, “Modulators of STING (stimulator of interferon genes)” (PFIZER INC., priority 2019, dated 2025)
